Assay results as given in patent EP0035270A2, “Heterocyclic compounds, compositions thereof, their preparation and use” (THE WELLCOME FOUNDATION LIMITED, priority 1980, dated 1981).

Columns and labels:
[1] = LD50's in mice; details: mouse, in vivo, ip; i.p. administration to mice
Method: The LD50's of compounds of formula were determined by conventional techniques by i.p. administration to mice.

[2] = Effect of pyrazolidinones on bodyweight of rats (single oral dose); assay type: in vivo; details: 0.22 m moles/kilogram bodyweight, two days after administration
Method: The compound of formula (I) prepared by the methods described in Examples 1 and 2 were administered orally to rats at a dose corresponding to 0.22 m moles/kilogram bodyweight. Two days after administration the weight of the treated rats was compared with control and the difference expressed as a percentage of the weight of the control animals.

[3] = Effect of 1-n-decyl pyrazolidin-3-one on rat bodyweight and food consumption; assay type: in vivo, Male Sprague-Dawley rats
Method: Male Sprague-Dawley rats were acclimatized as described in Example 6. The Rats (approx. 300 grams) were housed individually to present measurement of food consumption as well as bodyweight. Animals were treated once daily by oral […] guage either with saline or with 1-n-decyl pyrazolidin-3-one (25 mg/kg) in saline vehicle. Measurement of bodyweight and food consumption was […] during the recovery days, when treatment with drug has stopped.

[4] = Effect of varying daily oral doses of 1-n-decyl pyrazolidin-3-one on rat bodyweight; assay type: in vivo, Male Sprague-Dawley rats; details: for Percent Change from Initial Bodyweight (Mean ± S.E.M.) Day 5: Day 5, rats approx. 575 grams; for Percent Change from Initial Bodyweight (Mean ± S.E.M.) Day 10: Day 10, rats approx. 575 grams
Method: Male Sprague-Dawley rats were acclimatized to laboratory conditions for approximately four weeks prior to the experiment being carried out. The rats were maintained on a 12 hr/12 hr light dark cycle and had continuous access to food and water. Rats weighing approx. 575 grams were housed 4 to a cage and each rat treated daily with an oral injection of either saline vechicle or one of three doses of 1-n-decylpyrazolidinone dissolved in saline vehicle. The saline vehicle was prepared fresh each day.

## CCCCCCCCN1CCC(=O)N1.Cl [n-octyl, 1-(n-octyl)-3-pyrazolidone hydrochloride]
[1]
  LD50: 250 mg/kg

## CCCCCCCCCCN1CCC(=O)N1.Cl [n-decyl, 1-(n-decyl)-3-pyrazolidone hydrochloride]
[2]
  % weight deviation from control: -10.9%
[3]; 25 mg/kg p.o. once daily, Treatment Day 2
  Percent change in amount of food consumed (Mean ± S.E.M.): -1 ±6%
[3]; after 25 mg/kg p.o. once daily, Recovery Day 2 (treatment stopped)
  Percent change in amount of food consumed (Mean ± S.E.M.): -8 ±7%
[3]; after 25 mg/kg p.o. once daily, Recovery Day 3 (treatment stopped)
  Percent change in amount of food consumed (Mean ± S.E.M.): +13 ±8%
[1]
  LD50: 500 mg/kg
[4]; 10 mg/kg p.o. daily
  Percent Change from Initial Bodyweight (Mean ± S.E.M.) Day 5: -2.7 ± 0.3%
  Percent Change from Initial Bodyweight (Mean ± S.E.M.) Day 10: -1.1 ± 0.4%
[4]; 15 mg/kg p.o. daily
  Percent Change from Initial Bodyweight (Mean ± S.E.M.) Day 5: -3.3 ± 1.0%
  Percent Change from Initial Bodyweight (Mean ± S.E.M.) Day 10: -9.6 ± 1.7%
[4]; 20 mg/kg p.o. daily
  Percent Change from Initial Bodyweight (Mean ± S.E.M.) Day 5: -3.8 ± 0.6%
  Percent Change from Initial Bodyweight (Mean ± S.E.M.) Day 10: -11.1 ± 1.8%

## CCCCCCCCCCCCCCN1CCC(=O)N1.Cl [CH3(CH2)13-, 1-(n-tetradecyl)-3-pyrazolidone hydrochloride]
[1]
  LD50: 350 mg/kg

## CCCCCCCCCN1CCC(=O)N1.Cl [n-nonyl, 1-(n-nonyl)-3-pyrazolidone hydrochloride]
[1]
  LD50: 210 mg/kg

## CCCCCCCCCCCN1CCC(=O)N1.Cl [n-undecyl, 1-(n-undecyl)-3-pyrazolidone hydrochloride]
[1]
  LD50: 350 mg/kg
